Read-outs that look alike come from different tables or passages of the source.

Test [1] deals with T1, holo-TycB1 (recombinant) (Brevibacillus parabrevis, UniProt O30408).
T1 sequence (O30408 1-1080 limits assumed): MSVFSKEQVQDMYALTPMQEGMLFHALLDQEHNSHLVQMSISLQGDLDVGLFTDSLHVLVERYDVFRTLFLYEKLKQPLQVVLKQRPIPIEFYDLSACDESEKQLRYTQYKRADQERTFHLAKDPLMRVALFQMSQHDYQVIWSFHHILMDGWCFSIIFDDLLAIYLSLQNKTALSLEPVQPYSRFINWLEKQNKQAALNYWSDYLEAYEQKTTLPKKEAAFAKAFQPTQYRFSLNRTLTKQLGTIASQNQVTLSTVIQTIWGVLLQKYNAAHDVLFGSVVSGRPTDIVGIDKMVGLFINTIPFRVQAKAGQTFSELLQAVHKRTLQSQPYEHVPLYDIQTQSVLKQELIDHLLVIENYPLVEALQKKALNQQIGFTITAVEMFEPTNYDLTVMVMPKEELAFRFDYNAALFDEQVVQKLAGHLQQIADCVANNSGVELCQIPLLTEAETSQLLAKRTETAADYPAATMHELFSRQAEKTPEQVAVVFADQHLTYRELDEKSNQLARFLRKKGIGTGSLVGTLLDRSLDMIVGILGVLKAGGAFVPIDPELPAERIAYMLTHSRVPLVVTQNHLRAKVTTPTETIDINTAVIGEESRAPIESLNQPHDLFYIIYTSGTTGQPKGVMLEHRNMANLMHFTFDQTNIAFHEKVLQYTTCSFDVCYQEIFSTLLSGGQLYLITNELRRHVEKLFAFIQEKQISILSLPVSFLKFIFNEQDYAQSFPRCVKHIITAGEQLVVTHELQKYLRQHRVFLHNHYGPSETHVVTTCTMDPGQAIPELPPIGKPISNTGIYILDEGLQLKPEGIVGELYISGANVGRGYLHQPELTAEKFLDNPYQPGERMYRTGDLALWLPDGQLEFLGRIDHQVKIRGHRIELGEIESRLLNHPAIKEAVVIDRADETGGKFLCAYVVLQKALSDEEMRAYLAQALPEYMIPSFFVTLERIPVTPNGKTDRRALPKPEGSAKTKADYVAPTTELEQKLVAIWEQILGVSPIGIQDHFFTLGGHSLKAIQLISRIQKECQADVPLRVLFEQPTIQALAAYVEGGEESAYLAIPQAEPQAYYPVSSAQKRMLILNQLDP
Briefly: coupled hydroxamate-MesG continuous spectrophotometric assay. It counts as biochemical.

Test [2] concerns the target T2, holo-GrsA (recombinant) (Aneurinibacillus migulanus, UniProt P0C061).
T2 sequence (P0C061 1-1098): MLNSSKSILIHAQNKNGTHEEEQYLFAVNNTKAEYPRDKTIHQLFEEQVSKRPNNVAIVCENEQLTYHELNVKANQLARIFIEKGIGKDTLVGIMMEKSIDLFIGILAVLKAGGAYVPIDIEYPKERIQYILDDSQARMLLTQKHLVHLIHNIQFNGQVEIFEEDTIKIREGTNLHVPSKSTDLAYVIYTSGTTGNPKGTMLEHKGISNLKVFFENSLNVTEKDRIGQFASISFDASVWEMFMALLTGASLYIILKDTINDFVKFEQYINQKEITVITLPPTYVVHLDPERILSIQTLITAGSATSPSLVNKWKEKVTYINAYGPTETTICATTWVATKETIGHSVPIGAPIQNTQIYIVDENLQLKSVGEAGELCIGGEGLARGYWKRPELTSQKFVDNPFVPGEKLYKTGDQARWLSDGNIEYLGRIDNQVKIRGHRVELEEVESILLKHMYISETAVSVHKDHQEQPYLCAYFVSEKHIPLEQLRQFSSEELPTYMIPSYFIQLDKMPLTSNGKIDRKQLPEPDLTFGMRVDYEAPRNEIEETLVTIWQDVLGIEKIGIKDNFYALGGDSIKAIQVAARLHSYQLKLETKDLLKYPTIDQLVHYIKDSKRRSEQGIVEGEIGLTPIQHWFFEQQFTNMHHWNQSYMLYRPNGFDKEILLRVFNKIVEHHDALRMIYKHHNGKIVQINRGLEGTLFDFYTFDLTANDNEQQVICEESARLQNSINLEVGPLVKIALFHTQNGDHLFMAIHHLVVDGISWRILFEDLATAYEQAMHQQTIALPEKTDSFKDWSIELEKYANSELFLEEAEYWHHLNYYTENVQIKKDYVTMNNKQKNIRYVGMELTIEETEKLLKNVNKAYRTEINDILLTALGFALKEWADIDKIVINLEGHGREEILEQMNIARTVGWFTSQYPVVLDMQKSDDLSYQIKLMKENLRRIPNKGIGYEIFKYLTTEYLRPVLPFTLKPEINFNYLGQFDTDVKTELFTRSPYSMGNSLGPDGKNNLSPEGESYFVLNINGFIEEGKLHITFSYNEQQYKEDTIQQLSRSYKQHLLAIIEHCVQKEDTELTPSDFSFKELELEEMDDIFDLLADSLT
Described as above. The following applies: read-out: Ki^app; tight-binding; A domain active site. It counts as biochemical.

For the compound L-Pro-AMS-BPyne [compound 2], the Ki in test [1] (read-out: Ki^app, tight-binding, A domain active site) was found to be 327 ± 17 nM.

In the case of L-Phe-AMS-BPyne [compound 1], the Ki in test [2] was determined as 1.43 ± 0.19 nM.

In the case of `Nc1ncnc2c1ncn2[C@@H]1O[C@H](COS(=O)(=O)NC(=O)[C@@H]2CCCN2)[C@@H](O)[C@H]1O` [compound 5, L-Pro-AMS], in test [1], the Ki is 431 ± 42 nM.

These data come from article PMC4795001 (Chemical communications (Cambridge, England), 2015).
